# Test results published in US20220241249A1, “PHARMACEUTICAL COMPOSITION AND KIT CONTAINING NOVEL PENAM DERIVATIVE OR SALT THEREOF AND ONE OR MORE COMPOUNDS SELECTED FROM beta-LACTAMASE INHIBITORY COMPOUND AND ANTIBACTERIAL COMPOUND OR SALTS THEREOF” (priority 2019, published 2022).
# Like-named read-outs stand apart in the source and are kept apart here.
# Experiments:
# Assay type in all cases: cell-based
# [1] = tested on: Carbapenem-resistant Acinetobacter A515 strain; assay: MIC of test compound combined with a plurality of β-lactamase inhibitors; conditions: for antibacterial activity in combination with two β-lactamase inhibitors: against all the bacterial strains (Acinetobacter A514 and A515), with SBT and AVI
# Method: (§1) By using a broth microdilution method, the combinational effect of a test compound and a plurality of β-lactamase inhibitors was evaluated.
# (§2) The evaluation test for antibacterial activity was performed in the same manner as in Test Example 1.
# (§3) As bacterial strains, Carbapenem-resistant Acinetobacter A514 and A515 strains were used.
# [2] = tested on: Klebsiella pneumoniae Y-1020 strain producing KPC-3 and SHV-12 (strain B); assay: MIC of test compound alone or with β-lactamase inhibitor at 4 μg/mL; conditions: for MIC: Strain B; for antibacterial activity in combination with a β-lactamase inhibitor versus without: for all the bacterial strains (strains A to E), summary of Tables 43 to 47
# Method: (§4) By using a broth microdilution method, the combinational effect of a test compound and a β-lactamase inhibitor was evaluated.
# as §2
# [3] = tested on: Klebsiella pneumoniae Y-1133 strain producing NDM-1, OXA-48, and CTX-M-15 (strain C); assay: as above
# Method: as §4, §2
# Klebsiella pneumoniae Y-1133 strain producing NDM-1, OXA-48, and CTX-M-15 (hereinafter, called strain C),
# (§5) An antibacterial activity evaluation test was performed in the same manner as in Test Example 6.
# (§6) As the bacterial strain, the strains B, C, and D producing β-lactamase and a Klebsiella pneumoniae Y-1069 strain (hereinafter, called strain F) producing OXA-48 and CTX-M-15 were used.
# [4] = tested on: Klebsiella pneumoniae ATCC13883 strain (Klebsiella pneumoniae A); assay: Combinational effect of test compound and antibacterial compound, checkerboard FIC index
# Method: (§7) By using a broth microdilution method, the combinational effect of antibacterial activity of a test compound and an antibacterial compound was evaluated.
# (§8) As bacterial strains, an Escherichia coli ATCC25922 strain (hereinafter, called Escherichia coli A), a Klebsiella pneumoniae ATCC13883 strain (hereinafter, called Klebsiella pneumoniae A), and a Pseudomonas aeruginosa ATCC27853 strain (hereinafter, called Pseudomonas aeruginosa A) were used.
# (§9) The minimum inhibitory concentration (hereinafter, called MIC) was measured according to the Clinical and Laboratory Standards Institute (CLSI) standard method by using the following broth microdilution method.
# (§10) The bacterial cells that had been cultured overnight on a Mueller Hinton agar medium were scraped off, suspended at a density equivalent to 0.5 McFarland standard. The obtained suspension was diluted at 10 fold, thereby obtaining an inoculum. Cation-adjusted Mueller Hinton media containing only a test compound, containing only an antibacterial compound, or containing a test compound and an antibacterial compound were inoculated with 0.005 mL of the inoculum, and the cells were cultured at 35° C. for 18 to 20 hours. The minimum drug concentration at which the growth of bacteria was not visually observed was defined as MIC (μg/mL).
# (§11) The FIC Index is the minimum value calculated by the following formula.
# (§12) FIC Index=(MIC value obtained in a case where test compound is used in combination/MIC value obtained in a case where test compound is used alone)+(MIC value obtained in a case where antibacterial compound is used in combination/MIC value obtained in a case where antibacterial compound is used alone)
# (§13) In a case where the FIC Index was 0.5 or less, it was decided that the use of two drugs in combination brings about a synergistic effect.
# (§14) In a case where the FIC Index was more than 0.5 and 1 or less, it was decided that the use of two drugs in combination brings about an additive effect. (Diagnostic Microbiology and Infectious Disease, 2004, Vol. 49, p. 197)
# [5] = tested on: Pseudomonas aeruginosa ATCC27853 strain (Pseudomonas aeruginosa A); assay: as above; conditions: for FIC index: Pseudomonas aeruginosa A, checkerboard; for combinational effect with other antibacterial compounds: main strains of Gram-negative bacteria, summary of Tables 40 to 42
# Method: as §7, §8, §9, §10, §11, §12, §13, §14
# [6] = tested on: Escherichia coli ATCC25922 strain (Escherichia coli A); assay: as above
# Method: as §7, §8, §9, §10, §11, §12, §13, §14
# [7] = tested on: Escherichia coli TK-1747 strain producing CTX-M-15 (strain A); assay: MIC of test compound alone or with β-lactamase inhibitor at 4 μg/mL
# Method: as §4, §2
# Escherichia coli TK-1747 strain producing CTX-M-15 (hereinafter, called strain A),
# [8] = tested on: Escherichia coli TK-1765 strain producing CMY-2 (strain E); assay: as above
# Method: as §4, §2
# Escherichia coli TK-1765 strain producing CMY-2 (hereinafter, called strain E)
# [9] = tested on: Escherichia coli TK-3113 strain producing IMP-8 (strain D); assay: as above
# Method: as §4, §2
# Escherichia coli TK-3113 strain producing IMP-8 (hereinafter, called strain D),
# as §5, §6
# [10] = tested on: Carbapenem-resistant Acinetobacter A514 strain; assay: MIC of test compound combined with a plurality of β-lactamase inhibitors
# Method: as §1, §2, §3
# [11] = test compound alone (β-lactamase inhibitor N/A)
# [12] = Table 48, against the Carbapenem-resistant Acinetobacter A514 and A515 strains (so in the source), read-out: MIC
# [13] = Table 49, against the Carbapenem-resistant Acinetobacter A515 strain, read-out: MIC
structure (smiles),measurement,setting,value
CC(C)(O/N=C(\C(=O)N[C@@H]1C(=O)N2C[C@@](C(=O)O)(N3CCN(NC(=O)C(=O)c4ccc(O)c(O)c4Cl)C3=O)S[C@H]12)c1csc(N)n1)C(=O)O [Compound A],antibacterial activity in combination with two β-lactamase inhibitors,[1],High antibacterial activity
same,MIC,[2]; AVI added at 4 μg/mL,0.25 µg/mL
same,MIC,[2]; NAC added at 4 μg/mL,<0.015 µg/mL
same,MIC,[2]; VAB added at 4 μg/mL,1 µg/mL
same,MIC,[2]; ZID added at 4 μg/mL,<0.015 µg/mL
same,MIC,[2]; [11],2 µg/mL
same,antibacterial activity in combination with a β-lactamase inhibitor versus without,[2],higher antibacterial activity
same,MIC,[3]; AVI added at 4 μg/mL,0.12 µg/mL
same,MIC,[3]; NAC added at 4 μg/mL,0.03 µg/mL
same,MIC,[3]; ZID added at 4 μg/mL,<0.015 µg/mL
same,MIC,[3]; [11],0.5 µg/mL
same,FIC index,[4]; in combination with CAZ,0.625
same,FIC index,[4]; in combination with IPM,0.375
same,FIC index,[4]; in combination with LVFX,0.75
same,FIC index,[4]; in combination with MPC,<0.5
same,FIC index,[4]; in combination with PIPC,0.375
same,FIC index,[4]; in combination with PL-B,0.125
same,FIC index,[4]; in combination with RFP,0.502
same,FIC index,[4]; in combination with TMP,0.375
same,FIC index,[5]; in combination with AMK,0.5
same,FIC index,[5]; in combination with CAZ,0.5625
same,FIC index,[5]; in combination with IPM,0.252
same,FIC index,[5]; in combination with LVFX,0.5625
same,FIC index,[5]; in combination with PIPC,0.5
same,FIC index,[5]; in combination with PL-B,0.625
same,FIC index,[5]; in combination with RFP,0.281
same,FIC index,[5]; in combination with TC,0.375
same,combinational effect with other antibacterial compounds,[5],additive or synergistic effect
same,FIC index,[6]; in combination with AMK,0.5625
same,FIC index,[6]; in combination with CAZ,0.625
same,FIC index,[6]; in combination with IPM,0.5156
same,FIC index,[6]; in combination with LVFX,0.75
same,FIC index,[6]; in combination with MPC,0.5078
same,FIC index,[6]; in combination with PIPC,0.5625
same,FIC index,[6]; in combination with RFP,0.625
same,FIC index,[6]; in combination with TC,0.75
same,FIC index,[6]; in combination with TMP,0.625
same,MIC,[7]; AVI added at 4 μg/mL,<0.015 µg/mL
same,MIC,[7]; CVA added at 4 μg/mL,<0.015 µg/mL
same,MIC,[7]; NAC added at 4 μg/mL,<0.015 µg/mL
same,MIC,[7]; SBT added at 4 μg/mL,<0.015 µg/mL
same,MIC,[7]; TAZ added at 4 μg/mL,<0.015 µg/mL
same,MIC,[7]; VAB added at 4 μg/mL,0.06 µg/mL
same,MIC,[7]; ZID added at 4 μg/mL,<0.015 µg/mL
same,MIC,[7]; [11],0.12 µg/mL
same,MIC,[8]; [11],1 µg/mL
same,MIC,[8]; with AVI at 4 μg/mL,0.06 µg/mL
same,MIC,[8]; with SBT at 4 μg/mL,0.5 µg/mL
same,MIC,[8]; with TAZ at 4 μg/mL,0.25 µg/mL
same,MIC,[8]; with VAB at 4 μg/mL,0.12 µg/mL
same,MIC,[9]; NAC added at 4 μg/mL,0.06 µg/mL
same,MIC,[9]; ZID added at 4 μg/mL,<0.015 µg/mL
same,MIC,[9]; [11],0.5 µg/mL
"C[C@@H](O)[C@H]1C(=O)N2C(C(=O)O)=C(S[C@@H]3CN[C@H](C(=O)N(C)C)C3)[C@H](C)[C@H]12 [MEPM, meropenem hydrate, reference compound]",MIC,[10]; [12],> 32 µg/mL
same,MIC,[1]; [13],> 32 µg/mL
same,MIC,"[2]; Klebsiella pneumoniae, test compound alone (β-lactamase inhibitor N/A), read-out: MIC",32 µg/mL
same,MIC,"[3]; Klebsiella pneumoniae, test compound alone (β-lactamase inhibitor N/A)",> 128 µg/mL
Nc1nc(/C(=N/OC2(C(=O)O)CCC2)C(=O)N[C@@H]2C(=O)N3C[C@@](C(=O)O)(N4CCN(NC(=O)C(=O)c5ccc(O)c(O)c5Cl)C4=O)S[C@H]23)cs1 [Compound B],antibacterial activity in combination with two β-lactamase inhibitors,[1],High antibacterial activity
same,MIC,[2]; AVI added at 4 μg/mL,0.25 µg/mL
same,MIC,[2]; NAC added at 4 μg/mL,<0.015 µg/mL
same,MIC,[2]; VAB added at 4 μg/mL,<0.015 µg/mL
same,MIC,[2]; ZID added at 4 μg/mL,<0.015 µg/mL
same,MIC,[2]; [11],2 µg/mL
same,antibacterial activity in combination with a β-lactamase inhibitor versus without,[2],higher antibacterial activity
same,MIC,[3]; AVI added at 4 μg/mL,0.12 µg/mL
same,MIC,[3]; NAC added at 4 μg/mL,<0.015 µg/mL
same,MIC,[3]; ZID added at 4 μg/mL,<0.015 µg/mL
same,MIC,[3]; [11],1 µg/mL
same,FIC index,[4]; in combination with AMK,0.75
same,FIC index,[4]; in combination with CAZ,0.625
same,FIC index,[4]; in combination with IPM,0.375
same,FIC index,[4]; in combination with LVFX,0.563
same,FIC index,[4]; in combination with MPC,<0.375
same,FIC index,[4]; in combination with PIPC,<0.5
same,FIC index,[4]; in combination with PL-B,0.156
same,FIC index,[4]; in combination with RFP,0.281
same,FIC index,[4]; in combination with TMP,0.375
same,FIC index,[5]; in combination with AMK,0.375
same,FIC index,[5]; in combination with CAZ,0.563
same,FIC index,[5]; in combination with IPM,0.5
same,FIC index,[5]; in combination with LVFX,0.625
same,FIC index,[5]; in combination with PIPC,0.375
same,FIC index,[5]; in combination with PL-B,0.531
same,FIC index,[5]; in combination with RFP,0.313
same,FIC index,[5]; in combination with TMP,0.502
same,combinational effect with other antibacterial compounds,[5],additive or synergistic effect
same,FIC index,[6]; in combination with CAZ,0.625
same,FIC index,[6]; in combination with MPC,0.508
same,FIC index,[6]; in combination with PIPC,0.53
same,FIC index,[6]; in combination with RFP,0.531
same,FIC index,[6]; in combination with TMP,0.531
same,MIC,[8]; [11],1 µg/mL
same,MIC,[8]; with AVI at 4 μg/mL,0.03 µg/mL
same,MIC,[8]; with SBT at 4 μg/mL,0.5 µg/mL
same,MIC,[8]; with TAZ at 4 μg/mL,0.12 µg/mL
same,MIC,[8]; with VAB at 4 μg/mL,0.03 µg/mL
same,MIC,[9]; AVI added at 4 μg/mL,0.25 µg/mL
same,MIC,[9]; NAC added at 4 μg/mL,<0.015 µg/mL
same,MIC,[9]; ZID added at 4 μg/mL,<0.015 µg/mL
same,MIC,[9]; [11],0.5 µg/mL
"NC(=O)[C@@H]1CC[C@@H]2CN1C(=O)N2OS(=O)(=O)O [AVI, avibactam sodium]",MIC,[10]; [12],> 32 µg/mL
same,MIC,[1]; [13],> 32 µg/mL
"CC1(C)[C@H](C(=O)O)N2C(=O)C[C@H]2S1(=O)=O [SBT, sulbactam sodium]",MIC,[10]; Acinetobacter,> 32 µg/mL
same,MIC,[1]; Acinetobacter,> 32 µg/mL
